Test results from patent US10501438B2, “Aryl-substituted dihydroquinolinones, their preparation and their use as pharmaceuticals” (NEOMED Institute, priority 2015, dated 2019).

Columns and labels:
[1] = system: human C-Myc transcription in MV-4-11 cells; experiment: Transcription of human C-Myc in human leukemic MV-4-11 cells (QuantiGene 2.0); format: cell-based; conditions: Homo sapiens, MV4-11, 4 h, inhibition of C-Myc mRNA, 4 hours treatment
Method: b) Transcription of Human C-Myc in Human Leukemic MV-4-11 Cells:
The effect of compounds on transcription of human C-Myc gene is monitored in human B-myelomonocytic leukemia cell line MV-4-11 (from American Type Culture Collection (ATCC), Manassas, Va., USA) using QuantiGene 2.0 assay kit (Affymetrix, Santa Clara, Calif., USA).
Typically, 8,000 MV-4-11 cells are plated in sterile 96-well plates (Costar #3598 from Fisher Scientific Canada, Ottawa, Ontario, Canada) in Iscove's medium supplemented with 10% fetal bovine serum, glutamine (2 mM), and penicillin (100 I.U.) and streptomycin (100 μg/mL) (all from Wisent Inc., St. Bruno, Quebec, Canada). Compounds are dissolved in DMSO at 30 mM. A series of 1:3 dilutions are first made in DMSO, and further 1:100 dilutions are made in serum-containing cell culture media. The final concentration of DMSO is 0.1% in cell culture media. After cells are treated with various concentrations of test compound for 4 hours, cells are lysed using Quantigene 2.0 sample processing kit (#QS0100). C-Myc mRNA is detected using a QuantiGene 2.0 assay kit (#QS0009) with gene-specific probe to human C-Myc (#SA-50182) following the manufacturer's recommendations. Luminescene signals are read on Flexstation II microplate reader (Molecular Devices, Sunnyvale, Calif., USA).

[2] = biological target: BRD4(BD1) (Homo sapiens (Human), UniProt O60885); experiment: In vitro bromodomain inhibition assay (AlphaLISA); format: binding; conditions: His-tagged BRD4 BD1 200 nM, biotinylated H4-tetraacetyl peptide 200 nM
Method: a) In Vitro Bromodomain Inhibition Assay
To measure activity of bromodomain inhibitors, a His-epitope tagged BRD4 BD149-170 is purchased from BPS Bioscience. BRD4 binding and inhibition is assessed by monitoring the engagement of biotinylated H4-tetraacetyl peptide (H4K5/8/12/16; AnaSpec #64989-025) with the target using the AlphaLISA technology (Perkin-Elmer). Specifically, in a 384 well OptiPlate, BRD4(BD1) (200 nM final) is pre-incubated with either DMSO (final 1.0% DMSO) or a compound dilution series in DMSO. All reagents are diluted in assay buffer containing 50 mM HEPES (pH 7.4), 100 mM NaCl, 0.1% (w/v) BSA, and 0.05% (w/v) CHAPS. After a 30 min incubation at rt, H4 peptide is added (200 nM final) and the reaction is incubated an additional 30 min at rt. Alpha streptavidin donor beads and AlphaLISA nickel chelate acceptor beads are then added to a final concentration of 10 μg/mL each. After one hour, equilibration plates are read on an Envision instrument and IC50s calculated using a four parameter non-linear curve fit (results are shown in Table 2).

| Compound | IC50 [1] [nM] | IC50 [2] [nM] |
| --- | --- | --- |
| Cc1cc(-c2cc3c(c(Nc4cccnc4)c2)NC(=O)CC3)cn(C)c1=O [Compound 11, 6-(1,5-dimethyl-6-oxo-3-pyridyl)-8-(3-pyridylamino)-3,4-dihydro-1H-quinolin-2-one] | 2120 | 350 |
| Cc1cc(-c2cc3c(c(NCc4ccccn4)c2)NC(=O)CC3)cn(C)c1=O [Compound 12, 6-(1,5-dimethyl-6-oxo-3-pyridyl)-8-(2-pyridylmethylamino)-3,4-dihydro-1H-quinolin-2-one] | 90 | 110 |
| Cc1cc(-c2cc3c(c(NC4CCCCC4)c2)NC(=O)CC3)cn(C)c1=O [Compound 6, 8-(cyclohexylamino)-6-(1,5-dimethyl-6-oxo-3-pyridyl)-3,4-dihydro-1H-quinolin-2-one] | 750 | 810 |
| Cc1cc(-c2cc3c(c(NCc4ccccc4)c2)NC(=O)CC3)cn(C)c1=O [Compound 4, 8-(benzylamino)-6-(1,5-dimethyl-6-oxo-3-pyridyl)-3,4-dihydro-1H-quinolin-2-one] | 90 | 280 |
| Cc1cc(-c2cc3c(c(Cc4ccccc4)c2)NC(=O)CC3)cn(C)c1=O [Compound 1, 8-benzyl-6-(1,5-dimethyl-6-oxo-3-pyridyl)-3,4-dihydro-1H-quinolin-2-one] | 160 | 410 |
| Cc1cc(-c2cc3c(cc2Cc2ccccc2)NC(=O)CC3)cn(C)c1=O [Compound 8, 7-benzyl-6-(1,5-dimethyl-6-oxo-3-pyridyl)-3,4-dihydro-1H-quinolin-2-one] | 240 | 280 |
| Cc1cc(-c2cc3c(c(OCc4ccccc4)c2)NC(=O)CC3)cn(C)c1=O [Compound 17, 8-(benzyloxy)-6-(1,5-dimethyl-6-oxo-1,6-dihydropyridin-3-yl)-3,4-dihydroquinolin-2(1H)-one] | 240 | 180 |
| Cc1cc(-c2cc3c(c(Nc4ccccc4)c2)NC(=O)CC3)cn(C)c1=O [Compound 3, 8-anilino-6-(1,5-dimethyl-6-oxo-3-pyridyl)-3,4-dihydro-1H-quinolin-2-one] | 580 | 510 |
| Cc1cc(-c2cc3c(c(NC4CCOCC4)c2)NC(=O)CC3)cn(C)c1=O [Compound 18, 6-(1,5-dimethyl-6-oxo-3-pyridyl)-8-(tetrahydropyran-4-ylamino)-3,4-dihydro-1H-quinolin-2-one] | 790 | 420 |
| Cc1cc(-c2cc3c(cc2Cc2ccccc2)N(C)C(=O)CC3)cn(C)c1=O [Compound 10, 7-benzyl-6-(1,5-dimethyl-6-oxo-3-pyridyl)-1-methyl-3,4-dihydroquinolin-2-one] | 250 | 480 |
| Cc1cc(-c2cc3c(c(OCC4CCOCC4)c2)NC(=O)CC3)cn(C)c1=O [Compound 72, 6-(1,5-dimethyl-6-oxo-1,6-dihydropyridin-3-yl)-8-((tetrahydro-2H-pyran-4-yl)methoxy)-3,4-dihydroquinolin-2(1H)-one] | > 6140 |  |
| Cc1cc(-c2ccc3c(c2Cc2ccc(C#N)cc2)CCC(=O)N3)cn(C)c1=O [Compound 87, 4-((6-(1,5-dimethyl-6-oxo-1,6-dihydropyridin-3-yl)-2-oxo-1,2,3,4-tetrahydroquinolin-5-yl)methyl)benzonitrile] | 100 |  |
| Cc1cc(-c2ccc3c(c2Cc2ccncc2)CCC(=O)N3)cn(C)c1=O [Compound 59, 6-(1,5-dimethyl-6-oxo-1,6-dihydropyridin-3-yl)-5-(pyridin-4-ylmethyl)-3,4-dihydroquinolin-2(1H)-one] | 270 |  |
| Cc1cc(-c2ccc3c(c2CCc2ccccc2)CCC(=O)N3)cn(C)c1=O [Compound 96, 6-(1,5-dimethyl-6-oxo-1,6-dihydropyridin-3-yl)-5-phenethyl-3,4-dihydroquinolin-2(1H)-one] | 780 |  |
| Cc1cc(-c2cc3c(cc2Cc2ccccn2)NC(=O)CC3)cn(C)c1=O [Compound 61, 6-(1,5-dimethyl-6-oxo-1,6-dihydropyridin-3-yl)-7-(pyridin-2-ylmethyl)-3,4-dihydroquinolin-2(1H)-one] | 890 |  |
